Source: PubChem BioAssay (NCI)
Where “and” joins values, the source holds several entries; their conditions need not be identical. Equal values may be shown once.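 Five concentrations, 48 hours, 96-well plates. The concentration for 50% growth inhibition is given as GI50. TGI denotes the concentration required for complete inhibition of growth.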

How the values were obtained:
Assay in all cases: growth of human tumour cells (NCI), 48 h
ACHN renal = tested on: ACHN renal
EKVX NSCLC = tested on: EKVX NSCLC
HL-60(TB) leukemia = tested on: HL-60(TB) leukemia
HOP-18 NSCLC = tested on: HOP-18 NSCLC
HT29 colon = tested on: HT29 colon
LXFL 529 NSCLC = tested on: LXFL 529 NSCLC
M19-MEL melanoma = tested on: M19-MEL melanoma
MALME-3M melanoma = tested on: MALME-3M melanoma
MDA-MB-435 = tested on: MDA-MB-435
NCI-H23 lung = tested on: NCI-H23 lung
RPMI-8226 leukemia = tested on: RPMI-8226 leukemia
RXF-631 renal = tested on: RXF-631 renal
SF-268 CNS = tested on: SF-268 CNS
SF-539 CNS = tested on: SF-539 CNS
SNB-19 CNS = tested on: SNB-19 CNS
UACC-257 melanoma = tested on: UACC-257 melanoma
XF 498 CNS = tested on: XF 498 CNS
SNB-78 CNS = tested on: SNB-78 CNS

SMILES | TGI (ACHN renal) | GI50 (EKVX NSCLC) | TGI (EKVX NSCLC) | GI50 (HL-60(TB) leukemia) | TGI (HOP-18 NSCLC) | TGI (HT29 colon) | TGI (M19-MEL melanoma) | TGI (MALME-3M melanoma) | GI50 (MDA-MB-435) | TGI (MDA-MB-435) | GI50 (RPMI-8226 leukemia) | TGI (RPMI-8226 leukemia) | GI50 (SF-268 CNS) | TGI (SF-268 CNS) | TGI (SNB-19 CNS) | GI50 (UACC-257 melanoma) | TGI (UACC-257 melanoma) | TGI (XF 498 CNS) | other results
C1CN1c1nc(N2CC2)nc(N2CC2)n1 | 20.5 µM | 22.2 µM | 55.5 µM and 47.4 µM | 195 nM | 68.9 µM | 64.8 µM and 35.4 µM | 33 µM | 28.2 µM and 22.5 µM | 16.5 µM | 35.8 µM and 29.9 µM | 15.9 µM | 72.6 µM and 29.7 µM | 1.45 µM | 37.5 µM and 14.8 µM | 58.2 µM and > 51.3 µM | 13.3 µM | 31.9 µM and 23 µM | 17.2 µM | TGI (HL-60(TB) leukemia): 24.5 µM and > 100 µM; TGI (LXFL 529 NSCLC): 29.7 µM; GI50 (MALME-3M melanoma): 13.6 µM; GI50 (NCI-H23 lung): 5.55 µM; TGI (NCI-H23 lung): 20 µM and 15 µM; TGI (RXF-631 renal): 42.3 µM; GI50 (SF-539 CNS): 1780 nM; TGI (SF-539 CNS): 12.8 µM and 8.65 µM; GI50 (SNB-19 CNS): 4.55 µM
C[C@@]1(CO)[C@H](O)CC[C@@]2(C)[C@H]1CC[C@H]1C[C@@H]3C[C@@]12CC[C@@]3(O)COC(=O)CN | 40.7 µM and 16.5 µM | 96.8 µM and 79.3 µM | 64.5 µM and > 500 µM and 171 µM | 2110 nM and 380 nM | > 500 µM | 50.9 µM and 183 µM | > 500 µM and 161 µM | > 500 µM and 189 µM | 34.8 µM | > 77.6 µM and 109 µM | 16.1 µM and 3.35 µM | 78.2 µM and > 500 µM and 126 µM | 65.6 µM | > 500 µM and 242 µM | > 500 µM and 254 µM | 133 µM and 99.4 µM | > 72.2 µM and > 500 µM and 239 µM | 347 µM and 176 µM | GI50 (ACHN renal): 186 nM; GI50 (HOP-18 NSCLC): > 500 µM and 87.4 µM; GI50 (HT29 colon): 13.2 µM; GI50 (SNB-78 CNS): > 500 µM; TGI (SNB-78 CNS): > 500 µM; GI50 (XF 498 CNS): > 70.5 µM and 54.2 µM and 16.8 µM
